Numbers after ± are expanded uncertainties.
How the values were obtained:
[1] = Liquid; for mass density: 298.15 K, 101.33 kPa, Vibrating tube method; for vapor or sublimation pressure: Closed cell (Static) method; for Normal boiling temperature: Ebulliometric method (Recirculating still)
[2] = refractive index (Na D-line) (dimensionless); details: 298.15 K; 101.33 kPa; Liquid; Standard Abbe refractometry

COCCO [2-methoxyethan-1-ol]
Details | mass density [kg/m3] | refractive index
[1] | 960.02 ± 0.06 | –
[2] | – | 1.4006 ± 0.0005

[1]
Details | vapor or sublimation pressure [kPa]
345.94 K | 14.98 ± 0.2
349.54 K | 17.51 ± 0.2
352.72 K | 20.02 ± 0.2
355.49 K | 22.45 ± 0.2
358.12 K | 25.02 ± 0.2
360.51 K | 27.53 ± 0.21
362.72 K | 29.98 ± 0.21
364.76 K | 32.52 ± 0.21
366.62 K | 34.91 ± 0.21
368.51 K | 37.49 ± 0.21
370.14 K | 39.92 ± 0.21
371.85 K | 42.51 ± 0.21
373.35 K | 44.91 ± 0.21
374.89 K | 47.49 ± 0.21
376.28 K | 49.96 ± 0.21
377.65 K | 52.42 ± 0.22
378.98 K | 54.96 ± 0.22
380.23 K | 57.48 ± 0.22
381.44 K | 59.94 ± 0.22
382.64 K | 62.46 ± 0.22
383.74 K | 64.87 ± 0.22
384.89 K | 67.49 ± 0.23
385.95 K | 69.92 ± 0.23
387.02 K | 72.45 ± 0.23
388.02 K | 74.99 ± 0.23
388.98 K | 77.41 ± 0.23
389.94 K | 79.86 ± 0.23
390.92 K | 82.45 ± 0.24
391.85 K | 84.96 ± 0.24
392.74 K | 87.49 ± 0.24
393.61 K | 89.96 ± 0.24
394.47 K | 92.48 ± 0.24
395.32 K | 94.94 ± 0.25
396.12 K | 97.48 ± 0.25
396.96 K | 100.03 ± 0.25
397.37 K | 101.3 ± 0.3

C1CCCCC1 [cyclohexane]
Details | Normal boiling temperature [°C] | mass density [kg/m3] | refractive index
[1] | 80.58 ± 0.2 | 773.82 ± 0.13 | –
[2] | – | – | 1.4238 ± 0.0005

C1=CCCCC1 [cyclohexene]
Details | Normal boiling temperature [°C] | mass density [kg/m3] | refractive index
[1] | 82.82 ± 0.2 | 805.69 ± 0.14 | –
[2] | – | – | 1.4444 ± 0.0005

From the NIST ThermoML archive (doi:10.1021/je900259b)
